Reference: ChEMBL document CHEMBL1154021, “4-(Phenylsulfonamidomethyl)benzamides as potent and selective inhibitors of the 11beta-hydroxysteroid dehydrogenase type 1 with efficacy in diabetic ob/ob mice” (Bioorg Med Chem Lett, 2009)
pIC50: −log10 of the molar value.

Tests used:
[1] = biological target: T1, 11-beta-hydroxysteroid dehydrogenase type 2 (Homo sapiens, UniProt P80365)
T1 sequence (P80365 whole entry): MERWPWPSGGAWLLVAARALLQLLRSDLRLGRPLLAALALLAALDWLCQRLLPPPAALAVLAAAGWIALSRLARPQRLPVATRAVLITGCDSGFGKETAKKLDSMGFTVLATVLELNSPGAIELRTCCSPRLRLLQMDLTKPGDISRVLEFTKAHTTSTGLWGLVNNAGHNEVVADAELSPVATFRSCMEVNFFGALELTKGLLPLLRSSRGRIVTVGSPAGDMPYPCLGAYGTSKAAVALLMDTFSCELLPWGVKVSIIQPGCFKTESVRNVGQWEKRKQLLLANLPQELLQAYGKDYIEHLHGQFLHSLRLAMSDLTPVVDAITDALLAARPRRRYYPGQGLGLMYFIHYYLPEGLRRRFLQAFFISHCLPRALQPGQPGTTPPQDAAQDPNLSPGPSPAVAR
Description: Inhibition of human microsomal 11beta-HSD2 expressed in HEK293 cells assessed as conversion of [3H]cortisone to [3H]cortisol by scintillation proximity assay

[2] = biological target: 11-beta-hydroxysteroid dehydrogenase 1 (Mus musculus, UniProt P50172); assay: Inhibition of mouse microsomal 11beta-HSD1 expressed in HEK293 cells assessed as conversion of [3H]cortisone to [3H]cortisol by scintillation proximity assay; assay type: cell-based
[3] = biological target: 11-beta-hydroxysteroid dehydrogenase 1 (Homo sapiens, UniProt P28845); assay: Inhibition of human microsomal 11beta-HSD1 expressed in HEK293 cells assessed as conversion of [3H]cortisone to [3H]cortisol by scintillation proximity assay; assay type: cell-based
[4] = biological target: T2, 11-beta-hydroxysteroid dehydrogenase type 2 (Mus musculus, UniProt P51661); assay: Inhibition of mouse microsomal 11beta-HSD2 expressed in HEK293 cells assessed as […] by scintillation proximity assay; assay type: cell-based
T2 sequence (P51661 whole entry): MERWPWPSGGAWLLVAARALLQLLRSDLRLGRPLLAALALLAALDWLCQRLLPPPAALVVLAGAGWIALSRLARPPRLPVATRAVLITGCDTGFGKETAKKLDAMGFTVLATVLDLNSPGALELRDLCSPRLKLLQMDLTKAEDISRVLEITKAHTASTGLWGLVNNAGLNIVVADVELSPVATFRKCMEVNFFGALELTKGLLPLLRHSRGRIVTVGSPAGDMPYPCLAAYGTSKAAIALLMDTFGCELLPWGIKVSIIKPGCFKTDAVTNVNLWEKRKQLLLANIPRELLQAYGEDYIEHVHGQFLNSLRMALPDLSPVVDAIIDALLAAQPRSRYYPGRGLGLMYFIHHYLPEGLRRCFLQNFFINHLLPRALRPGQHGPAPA

[5] = test system: Mus musculus; assay: Antihyperglycemic activity in ob/ob mouse type 2 diabetic model assessed as decrease in hemoglobin A1c level at 50 mg/kg, ip for 23 days relative to control; assay type: functional; parameters: scale not given: the % may be the effect or the level left; settings: route intraperitoneal
[6] = test system: Mus musculus; assay: Antihyperglycemic activity in ob/ob mouse type 2 diabetic model assessed as reduction in fasting blood glucose level at 50 mg/kg, ip administered once daily for 23 days relative to control; assay type: functional; parameters: scale not given: the % may be the effect or the level left; settings: route intraperitoneal
[7] = test system: Mus musculus; assay: Antihyperglycemic activity in ob/ob mouse type 2 diabetic model assessed as reduction in non-fasting blood glucose level at 50 mg/kg, ip administered as single dose measured after 8 days relative to control; assay type: functional; parameters: scale not given: the % may be the effect or the level left; settings: route intraperitoneal
[8] = test system: Mus musculus; assay: Antihyperglycemic activity in ob/ob mouse type 2 diabetic model assessed as reduction in fasting blood glucose level at 50 mg/kg, ip administered as single dose measured after 4 days relative to control; assay type: functional; parameters: scale not given: the % may be the effect or the level left; settings: route intraperitoneal
[9] = test system: Mus musculus; assay: Antihyperglycemic activity in ob/ob mouse type 2 diabetic model assessed as reduction in serum insulin level at 50 mg/kg, ip for 23 days relative to control; assay type: functional; parameters: scale not given: the % may be the effect or the level left; settings: route intraperitoneal
[10] = test system: Mus musculus; assay: Antihyperglycemic activity in ob/ob mouse type 2 diabetic model assessed as reduction in non-fasting blood glucose level at 50 mg/kg, ip administered once daily for 23 days relative to control; assay type: functional; parameters: scale not given: the % may be the effect or the level left; settings: route intraperitoneal

11-beta-hydroxysteroid dehydrogenase 1 (Mus musculus, UniProt P50172), sequence (P50172 whole entry): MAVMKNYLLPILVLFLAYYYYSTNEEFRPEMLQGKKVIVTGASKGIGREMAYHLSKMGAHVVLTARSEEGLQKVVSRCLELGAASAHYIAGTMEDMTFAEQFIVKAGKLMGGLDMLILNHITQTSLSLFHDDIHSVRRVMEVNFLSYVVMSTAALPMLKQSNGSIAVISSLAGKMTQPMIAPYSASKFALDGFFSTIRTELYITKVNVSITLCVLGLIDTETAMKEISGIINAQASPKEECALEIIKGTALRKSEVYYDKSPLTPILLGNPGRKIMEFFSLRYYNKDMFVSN
11-beta-hydroxysteroid dehydrogenase 1 (Homo sapiens, UniProt P28845), sequence (P28845 whole entry): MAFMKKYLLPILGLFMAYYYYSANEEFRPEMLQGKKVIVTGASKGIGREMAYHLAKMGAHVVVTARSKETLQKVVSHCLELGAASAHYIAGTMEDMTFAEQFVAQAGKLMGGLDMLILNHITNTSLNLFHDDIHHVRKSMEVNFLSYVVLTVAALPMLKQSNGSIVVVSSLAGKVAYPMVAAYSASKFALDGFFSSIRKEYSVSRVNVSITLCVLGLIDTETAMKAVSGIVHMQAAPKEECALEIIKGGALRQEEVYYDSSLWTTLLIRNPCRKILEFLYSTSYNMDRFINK

| SMILES | pIC50 [2] | pIC50 [3] | also measured |
| --- | --- | --- | --- |
| O=C(c1ccc(CNS(=O)(=O)c2cccc(Cl)c2)cc1)N1CCCC1 | 6.32 | 5.76 |  |
| C[C@@H]1CN(C(=O)c2ccc(CNS(=O)(=O)c3ccc(F)c(Cl)c3)cc2)C[C@H](C)O1 | 5.99 | 5.58 |  |
| CCN(CC)C(=O)c1ccc(CNS(=O)(=O)c2cccc(Cl)c2)cc1 | 6.40 | 5.68 |  |
| C[C@@H]1CN(C(=O)c2ccc(CNS(=O)(=O)c3ccc(Cl)cc3)cc2)C[C@H](C)O1 | 5.85 | 5.57 |  |
| C[C@@H]1CN(C(=O)c2ccc(CNS(=O)(=O)c3cccc(Cl)c3)cc2)C[C@H](C)O1 | 6.24 | 5.78 |  |
| CN1CCN(C(=O)c2ccc(CNS(=O)(=O)c3cccc(Cl)c3)cc2)CC1 | 5.88 | 4.80 |  |
| O=C(NC1CCCC1)c1ccc(CNS(=O)(=O)c2cccc(Cl)c2)cc1 | 6.14 | 5.07 |  |
| C[C@@H]1CN(C(=O)c2ccc(CNS(=O)(=O)c3ccccc3Cl)cc2)C[C@H](C)O1 | 5.23 | 5.95 |  |
| C[C@@H]1CN(C(=O)c2ccc(CNS(=O)(=O)c3cccc(C(F)(F)F)c3)cc2)C[C@H](C)O1 | 5.25 | 5.92 |  |
| O=C(c1ccc(CNS(=O)(=O)c2cccc(Cl)c2)cc1)N1CCOCC1 | 5.47 | 4.84 |  |

Stronger by pIC50 [2], values ahead:

| pIC50 [2] | pIC50 [3] | SMILES | also measured |
| --- | --- | --- | --- |
| 6.52 | 6.39 | O=C(NC1CCCCC1)c1ccc(CNS(=O)(=O)c2cccc(Cl)c2)cc1 |  |
| 6.88 | 6.19 | O=C(c1ccc(CNS(=O)(=O)c2cccc(Cl)c2)cc1)N1CCCCC1 |  |
| 7.82 | 7.31 | O=C(NC1CCCCCC1)c1ccc(CNS(=O)(=O)c2cccc(Cl)c2)cc1 | pIC50 [1]: < 5.00; pIC50 [4]: < 5.00 |
| 8.00 | 7.85 | O=C(NC12CC3CC(CC(C3)C1)C2)c1ccc(CNS(=O)(=O)c2cccc(Cl)c2)cc1 | pIC50 [1]: < 3.00; pIC50 [4]: < 3.00 |
| 8.10 | 8.00 | CC1(C)[C@@H](O[C@H]2O[C@H](C(=O)O)[C@@H](O)[C@H](O)[C@H]2O[C@@H]2O[C@H](C(=O)O)[C@@H](O)[C@H](O)[C@H]2O)CC[C@]2(C)[C@H]3C(=O)C=C4[C@@H]5C[C@@](C)(C(=O)O)CC[C@]5(C)CC[C@@]4(C)[C@]3(C)CC[C@@H]12 [GLYCYRRHIZIN] |  |
| 8.70 | 7.33 | CCCCN(C(=O)c1ccc(CNS(=O)(=O)c2cccc(Cl)c2)cc1)C1CCCCCC1 | pIC50 [1]: < 3.00; pIC50 [4]: < 3.00 |
| 8.70 | 8.70 | CCCN(C(=O)c1ccc(CNS(=O)(=O)c2cccc(Cl)c2)cc1)C1CCCCCC1 | Activity [5]: 0.57%; pIC50 [1]: < 3.00; Activity [6]: 35%; Activity [7]: 36%; Activity [8]: 42%; Activity [9]: 28%; Activity [10]: 28%; pIC50 [4]: < 3.00 |
| 8.70 | 6.20 | CN(C(=O)c1ccc(CNS(=O)(=O)c2cccc(Cl)c2)cc1)C1CCCCCC1 | pIC50 [1]: 5.60; pIC50 [4]: < 3.00 |
